What is called MIC is the lowest concentration found to suppress growth. One may read the IC50 as the concentration at which inhibition is half-maximal.

Data on 24 compounds can be found in ChEMBL document CHEMBL3804819, “2-(Quinolin-4-yloxy)acetamides Are Active against Drug-Susceptible and Drug-Resistant Mycobacterium tuberculosis Strains” (ACS Med Chem Lett, 2016).

Converted amounts (≈) assume the structure as drawn. The source made the active and inactive calls. No cut-off for these calls is given here. Where only a bound is given, the exact number is not on record here.

For data set [1], the system named is Mycobacterium tuberculosis. In words: Antibacterial activity against Mycobacterium tuberculosis H37Rv infected in mouse RAW 264.7 cells assessed reduction in bacterial count per well at 5 uM after 3 days (reference value: 2.5 +/- 0.15 log10CFU). The class given is functional.
Data set [2] concerns Pseudomonas aeruginosa. In words: Antibacterial activity against Pseudomonas aeruginosa ATCC 27853 at 20 uM. The class given is functional, organism-based.
The subject of data set [3] is Mycobacterium tuberculosis. The data set can be described thus: Antibacterial activity against Mycobacterium tuberculosis H37Rv assessed as reduction in bacterial growth after 7 days by resazurin assay. The class given is functional. Conditions: for MIC: 168 h. On the technique in general: Resazurin is reduced to fluorescent resorufin, in cell work by metabolically active cells.

Data set [4] deals with HaCaT. In words: Cytotoxicity against human HaCaT cells assessed as reduction in cell viability at 20 uM after 72 hrs by MTT assay. The class given is cell-based. (Tetrazolium dyes change colour on reduction, which living cells bring about.)
Data set [5] deals with Mycobacterium tuberculosis. In words: Antibacterial activity against Mycobacterium tuberculosis H37Rv ATCC 25618 assessed as reduction in bacterial growth after 6 days by resazurin assay. The class given is functional. Conditions: H37Rv ATCC 25618, 144 h.
Data set [6] concerns Staphylococcus aureus. In words: Antibacterial activity against Staphylococcus aureus ATCC 25923 at 20 uM. The class given is functional, organism-based.
In data set [7] the test system is RAW264.7. In words: Cytotoxicity against mouse RAW264.7 cells assessed as decrease in cell viability at 5 uM after 72 hrs by MTT assay. The class given is cell-based. Conditions: raw264.7, 72 h.
The test system of data set [8] is Acinetobacter baumannii. The data set can be described thus: Antibacterial activity against Acinetobacter baumannii ATCC BAA 747 at 20 uM. The class given is functional, organism-based.
The subject of data set [9] is Escherichia coli. The data set can be described thus: Antibacterial activity against Escherichia coli ATCC 25922 at 20 uM. The class given is functional, organism-based.
The test system of data set [10] is Vero. The data set can be described thus: Cytotoxicity against African green monkey Vero cells assessed as reduction in cell viability at 20 uM after 72 hrs by MTT assay. The class given is cell-based. Conditions: chlorocebus sabaeus.
Data set [11] is filed under the species Danio rerio. In words: Toxicity in zebrafish embryo assessed as reduction in heart rate at 1 uM measured at 72 hrs post fertilization by stereo microscopic analysis. The class given is organism-based. Conditions: in vivo.
Data set [12] is described as follows: Inhibition CYP450 in human liver microsomes by HPLC/MS/MS analysis in presence of NADPH. The class given is ADME. (In general: Microsomes from liver hold many membrane-bound enzymes, among them those of drug oxidation.)
The species entered for data set [13] is Danio rerio. The data set can be described thus: Toxicity in zebrafish embryo assessed as reduction in heart rate at 20 uM measured at 72 hrs post fertilization by stereo microscopic analysis. The class given is organism-based. The settings on record: in vivo.
Data set [14] in a line: Thermodynamic solubility of the compound at pH 7.4 after 24 hrs by HPLC analysis. The class given is physicochemical. The settings on record: buffer, read-out: Therm_solubility.
Data set [15] is filed under the species Danio rerio. In words: Toxicity in zebrafish embryo assessed as reduction in heart rate at 5 uM measured at 72 hrs post fertilization by stereo microscopic analysis. The class given is organism-based. The settings on record: in vivo.
A short description of data set [16]: Thermodynamic solubility of the compound at pH 1.5 after 24 hrs by HPLC analysis. The settings on record: buffer, read-out: Therm_solubility. The class given is physicochemical.
Data set [17] relates to Liver. In words: Metabolic stability in human liver S9 fraction at 2 uM measured up to 30 mins by HPLC/MS/MS analysis. The class given is ADME, subcellular. Conditions: s9, 0.5 h.

For the compound `COc1ccc2nc(C)cc(OCC(=O)Nc3ccccc3OC)c2c1`, the Activity in data set [1] is on record as 1.61 log10CFU; in [4], “Non-toxic”; in data set [7] it was “Non-toxic”; in [10], “Non-toxic”. The result in data set [2], in data set [6], in data set [8] and in data set [9] was inactive. The MIC in data set [3] turned out to be 0.44 µM (≈ 0.155 µg/mL); in data set [5] it was 0.7 µM (≈ 0.247 µg/mL).

With `COc1ccc2nc(C)cc(OCC(=O)Nc3ccccc3C)c2c1`, the Activity is 2.09 log10CFU in [1], “Non-toxic” in data set [4], “Non-toxic” in data set [7] and “Non-toxic” in [10]. In addition, the result in [2], in data set [6], in [8] and in [9] was inactive. Also, the MIC in data set [3] was 0.46 µM (≈ 0.155 µg/mL).

`CO[C@H]1/C=C/O[C@@]2(C)Oc3c(C)c(O)c4c(O)c(c(/C=N/N5CCN(C)CC5)c(O)c4c3C2=O)NC(=O)/C(C)=C\C=C\[C@H](C)[C@H](O)[C@@H](C)[C@@H](O)[C@@H](C)[C@H](OC(C)=O)[C@@H]1C` [RIFAMPIN] returned an Activity in data set [1] of 1.58 log10CFU.

As to `COc1ccc2nc(C)cc(OCC(=O)Nc3ccccc3)c2c1`, the result in data set [2], in [6], in [8] and in [9] was inactive. Moreover, in data set [3], the MIC was 0.48 µM (≈ 0.155 µg/mL). The Activity entry in data set [4] and in [10] was “Non-toxic” throughout.

`NNC(=O)c1ccncc1` [ISONIAZID]: the MIC in data set [3] worked out at 1.46 µM (≈ 0.2 µg/mL).

Take `COc1ccc2nc(C)cc(OCC(=O)Nc3ccccc3Cl)c2c1`: the Activity in [1] is recorded as 1.75 log10CFU; in data set [4], “Non-toxic”; in data set [7], “Non-toxic”; in [10] it was “Non-toxic”. In addition, the result in [2], in data set [6], in data set [8] and in data set [9] was inactive. The MIC in data set [3] is 0.44 µM (≈ 0.157 µg/mL).

On to `COc1ccccc1NC(=O)COc1cc(C)nc2ccccc12`, for which, in [3], the MIC was greater than 29 µM.

As to `COc1ccc2nc(C)cc(OCC(=O)Nc3ccc([N+](=O)[O-])cc3)c2c1`, the MIC in data set [3] is 6.79 µM (≈ 2.49 µg/mL).

Turning to `COc1cccc(NC(=O)COc2cc(C)nc3ccc(OC)cc23)c1`, the result in data set [2], in [6], in [8] and in [9] was inactive. Moreover, in [3], the MIC amounted to 0.88 µM (≈ 0.31 µg/mL). The Activity entry in data set [4] and in [10] was “Non-toxic” each time.

Consider `COc1ccc2nc(C)cc(OCC(=O)Nc3ccc(Br)cc3)c2c1`, for which the Activity result in data set [11] is given as “Non-toxic”; in [1], 1.87 log10CFU; in data set [13] it was “Toxic”; in data set [15] it was “Non-toxic”; in data set [4], “Non-toxic”; in data set [7], “Non-toxic”. Further, the Activity result in data set [10] is “Non-toxic”. For the same compound, the outcome in data set [2], in data set [6], in [8] and in data set [9] was inactive. In addition, the MIC in data set [3] was 0.1 µM (≈ 0.0401 µg/mL). Also, the IC50 in [12] was less than 10 µM. Moreover, the solubility thermodynamic at 24 h in data set [14] was less than 4.4 µM; in data set [16], 30 µM (≈ 12 µg/mL). Moreover, in [17], the Stability entry is reported as “Stable”.

Regarding `CCc1cccc(C)c1NC(=O)COc1cc(C)nc2ccc(OC)cc12`, the MIC in data set [3] was greater than 27 µM.

Consider `COc1ccc2nc(C)cc(O)c2c1`, for which, in data set [3], the outcome was inactive.

For `COc1ccc2nc(C)cc(OCC(=O)NCc3ccccc3)c2c1`, the Activity was 1.71 log10CFU in data set [1], “Non-toxic” in [4], “Non-toxic” in data set [7] and “Non-toxic” in data set [10]. The outcome in [2], in data set [6], in [8] and in data set [9] was inactive. For the same compound, the MIC in data set [3] came out at 1.85 µM (≈ 0.622 µg/mL).

In the case of `COc1ccc(NC(=O)COc2cc(C)nc3ccc(OC)cc23)c(OC)c1`, the Activity result in data set [11] is “Non-toxic”; in data set [1], 1.61 log10CFU; in [13], “Toxic”; in data set [15], “Non-toxic”; in [4], “Non-toxic”; in data set [7] it was “Non-toxic”. Moreover, the Activity entry in data set [10] was “Non-toxic”. Also, the result in data set [2], in [6], in [8] and in data set [9] was inactive. Also, the MIC in [3] is 0.15 µM (≈ 0.0574 µg/mL). The IC50 in data set [12] is less than 10 µM. Moreover, the solubility thermodynamic at 24 h in data set [14] was less than 4.4 µM; in data set [16] it was 30 µM (≈ 11.5 µg/mL). For the same compound, in [17], the Stability result is “Stable”.

As to `COc1ccc2nc(C)cc(OCC(=O)Nc3ccc(Cl)cc3)c2c1`, the Activity in data set [1] is 1.73 log10CFU; in data set [4], “Non-toxic”; in data set [7] it was “Non-toxic”; in data set [10], “Non-toxic”. Moreover, the outcome in data set [2], in [6], in data set [8] and in data set [9] was inactive. The MIC in data set [3] came out at 0.44 µM (≈ 0.157 µg/mL).

Regarding `COc1ccc2nc(C)cc(OCC(=O)Nc3ccc4c(c3)OCO4)c2c1`, the Activity in [1] is listed as 1.77 log10CFU; in data set [4] it was “Non-toxic”; in [7] it was “Non-toxic”; in data set [10], “Non-toxic”. For the same compound, the result in data set [2], in data set [6], in [8] and in data set [9] was inactive. Also, the MIC in [3] turned out to be 0.42 µM (≈ 0.154 µg/mL).

Turning to `COc1ccc2nc(C)cc(OCC(=O)Nc3ccc(C(F)(F)F)cc3)c2c1`, the Activity in data set [1] is on record as 1.89 log10CFU; in data set [4] it was “Non-toxic”; in data set [7], “Non-toxic”; in [10], “Non-toxic”. The result in [2], in data set [6], in data set [8] and in [9] was inactive. Moreover, the MIC in data set [3] was 0.8 µM (≈ 0.312 µg/mL).

On to `COc1ccc2nc(C)cc(OCC(=O)Nc3cccc4ccccc34)c2c1`, for which the MIC in data set [3] amounted to 0.21 µM (≈ 0.0782 µg/mL).

Consider `COc1ccc2nc(C)cc(OCC(=O)Nc3ccc(N)cc3)c2c1`, for which, in data set [3], the MIC came to 7.39 µM (≈ 2.49 µg/mL).

In the case of `COc1ccc2nc(C)cc(OCC(=O)Nc3cccc(C(F)(F)F)c3)c2c1`, in [3], the MIC turned out to be 6.39 µM (≈ 2.49 µg/mL).

Take `COc1ccc2nc(C)cc(OCC(=O)Nc3ccccc3[N+](=O)[O-])c2c1`: in data set [3], the MIC worked out at 6.79 µM (≈ 2.49 µg/mL).

Consider `COc1ccc2c(c1)c(=O)ccn2CC(=O)Nc1ccccc1OC`, for which the MIC in [3] was greater than 31 µM.

On to `COc1ccc2nc(C)cc(OCC(=O)Nc3cccc(Cl)c3)c2c1`, for which the Activity in [1] is 2.12 log10CFU; in data set [4], “Non-toxic”; in [7], “Non-toxic”; in [10], “Non-toxic”. Further, the outcome in data set [2], in data set [6], in [8] and in [9] was inactive. Moreover, the MIC in data set [3] was found to be 0.44 µM (≈ 0.157 µg/mL).

With `COc1ccc(NC(=O)COc2cc(C)nc3ccc(OC)cc23)cc1`, the result in data set [2], in data set [6], in data set [8] and in [9] was inactive. Moreover, the MIC in data set [3] was 0.44 µM (≈ 0.155 µg/mL). Moreover, the Activity result in data set [4] and in [10] was “Non-toxic” each time.
